Series [1] has as its target T1, Amine oxidase [flavin-containing] A (Homo sapiens, UniProt P21397).
T1 sequence (P21397 whole entry): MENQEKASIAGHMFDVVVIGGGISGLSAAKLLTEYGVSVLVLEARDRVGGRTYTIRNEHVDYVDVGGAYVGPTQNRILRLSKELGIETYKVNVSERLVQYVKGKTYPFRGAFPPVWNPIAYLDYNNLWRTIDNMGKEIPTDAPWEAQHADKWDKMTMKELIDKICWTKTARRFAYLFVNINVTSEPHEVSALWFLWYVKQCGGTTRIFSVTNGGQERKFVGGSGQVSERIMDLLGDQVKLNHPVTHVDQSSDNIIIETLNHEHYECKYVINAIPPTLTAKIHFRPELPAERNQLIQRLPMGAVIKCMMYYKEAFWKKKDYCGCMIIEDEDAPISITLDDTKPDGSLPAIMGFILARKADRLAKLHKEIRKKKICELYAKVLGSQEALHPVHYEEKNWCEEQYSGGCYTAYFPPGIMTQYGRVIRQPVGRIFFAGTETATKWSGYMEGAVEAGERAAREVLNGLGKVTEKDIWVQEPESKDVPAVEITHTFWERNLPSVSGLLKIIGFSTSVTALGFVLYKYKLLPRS
In words: Inhibition of recombinant human MAO-A using kynuramine as substrate incubated for 15 mins by absorbance based assay.

Series [2] deals with T2, Amine oxidase [flavin-containing] B (Homo sapiens, UniProt P27338).
T2 sequence (P27338 whole entry): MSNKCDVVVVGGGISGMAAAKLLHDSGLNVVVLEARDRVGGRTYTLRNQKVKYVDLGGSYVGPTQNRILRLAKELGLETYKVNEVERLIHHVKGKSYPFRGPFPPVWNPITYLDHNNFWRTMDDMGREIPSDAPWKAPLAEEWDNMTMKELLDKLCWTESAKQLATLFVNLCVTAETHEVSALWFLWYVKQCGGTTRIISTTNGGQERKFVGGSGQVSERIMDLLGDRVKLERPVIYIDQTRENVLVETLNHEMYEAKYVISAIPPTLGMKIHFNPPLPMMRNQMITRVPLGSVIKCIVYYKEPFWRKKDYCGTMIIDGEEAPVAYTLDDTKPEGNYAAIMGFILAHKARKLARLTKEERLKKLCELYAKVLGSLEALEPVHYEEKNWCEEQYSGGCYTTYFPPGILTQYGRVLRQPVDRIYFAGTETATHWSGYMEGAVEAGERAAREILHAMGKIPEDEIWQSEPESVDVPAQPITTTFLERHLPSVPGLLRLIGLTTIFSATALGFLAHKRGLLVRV

The test system of series [3] is Mycobacterium tuberculosis. In words: Antimycobacterial activity against Mycobacterium tuberculosis H37Rv measured after 7 days by MABA assay. The format is functional. The settings on record: 168 h, time 7 day.
Series [4] addresses T2, Amine oxidase [flavin-containing] B. The settings on record: 0.5 h.
For series [5] the target is unchanged. Description: Reversible competitive inhibition of human MAO-B assessed as residual activity before dialysis at 0.068 uM incubated for 30 mins relative to control. The settings on record: 0.5 h, read-out: Activity.
For series [6] the target is unchanged. Description: Reversible competitive inhibition of human MAO-B assessed as residual activity after dialysis at 0.068 uM incubated for 30 mins relative to control. The settings on record: 0.5 h, read-out: Activity.
Series [7] has the same target. In words: Potency index, ratio of Pargyline IC50 to test compound IC50 for inhibition of recombinant human MAO-B using benzylamine as substrate incubated for 15 mins by absorbance based assay. The settings on record: 0.25 h.
Series [8] shares this target. Description: Potency index, ratio of Clorgyline IC50 to test compound IC50 for inhibition of recombinant human MAO-B using benzylamine as substrate incubated for 15 mins by absorbance based assay. Conditions: 0.25 h.
The nature of series [9]: Cytotoxicity against human THP-1 cells incubated for 3 days by Cell Titer-Glo Luminescent Cell Viability Assay. The format is toxicity, cell-based.

In the case of `O=C(Nc1nnc(-c2ccc(N3CCSCC3)c(F)c2)s1)C1CC1`, the values for the half-maximal inhibitory concentration (IC50) in series [1] and in series [2] were greater than 40000 nM and 100 nM, respectively. In series [3], this compound gave an MIC greater than 25 µg/mL.

Consider `O=S(=O)(Nc1nnc(-c2ccc(N3CCSCC3)c(F)c2)s1)C1CC1`, for which the IC50 in series [1] stood at 26000 nM; in [2], 50 nM. The same compound had an MIC in [3] greater than 25 µg/mL.

As to `C#CCN(C)Cc1ccccc1` [PARGYLINE], the activity at 0.028 µM in [4] is 34%.

`CS(=O)(=O)Nc1nnc(-c2ccc(N3CCSCC3)c(F)c2)s1`: the IC50 was found to be 18400 nM in [1] and 40 nM in series [2]. Besides, in series [3], the MIC was greater than 25 µg/mL.

Take `CC(=O)Nc1nnc(-c2ccc(N3CCCC3)c(F)c2)s1`: the IC50 in [1] was determined as 13200 nM; in [2] it was 170 nM. Besides, in series [3], the MIC was greater than 25 µg/mL.

Turning to `CCCCS(=O)(=O)Nc1nnc(-c2ccc(N3CCSCC3)c(F)c2)s1`, the IC50 worked out at 21500 nM in series [1] and 50 nM in series [2]. In series [3], this compound had an MIC greater than 25 µg/mL.

Consider `CC(=O)Nc1nnc(-c2ccc(N3CCOCC3)c(F)c2)s1`, for which the IC50 in series [1] is greater than 40000 nM; in series [2], 1020 nM. Also, the MIC in series [3] was greater than 25 µg/mL.

As to `CCS(=O)(=O)Nc1nnc(-c2ccc(N3CCSCC3)c(F)c2)s1`, the IC50 in [1] was 15800 nM; in [2] it was 30 nM. Further, the values for the activity at 0.068 µM in [5] and in series [6] were 35% and 73.5%, respectively. Also, the “Ratio IC50” value in [7] is given as 4; in [8], 54. In series [3], this compound yielded an MIC greater than 25 µg/mL. For the same compound, in series [9], the IC50 at 3 days was greater than 300 µg/mL.

Turning to `CC(=O)Nc1nnc(-c2ccc(N3CCSCC3)c(F)c2)s1`, the results for the IC50 in [1] and in [2] were 8960 nM and 70 nM, respectively. Further, the MIC in series [3] was greater than 25 µg/mL. In series [9], this compound displayed an IC50 at 3 days greater than 300 µg/mL.

Values taken from ChEMBL document CHEMBL6121031, “Optimizing Linezolid: Transforming It into a Selective MAO-B Inhibitor via a Toxicity-to-Activity Optimization Approach” (ACS Med Chem Lett, 2025).
